The source of these data is ChEMBL document CHEMBL1144403, “Novel immunomodulator FTY720 is phosphorylated in rats and humans to form a single stereoisomer. Identification, chemical proof, and biological characterization of the biologically active species and its enantiomer” (J Med Chem, 2005).

Holding throughout (assay type): functional, cell-based
Test [1] deals with T1, Sphingosine 1-phosphate receptor 4 (Homo sapiens, UniProt O95977).
T1 sequence (O95977 whole entry): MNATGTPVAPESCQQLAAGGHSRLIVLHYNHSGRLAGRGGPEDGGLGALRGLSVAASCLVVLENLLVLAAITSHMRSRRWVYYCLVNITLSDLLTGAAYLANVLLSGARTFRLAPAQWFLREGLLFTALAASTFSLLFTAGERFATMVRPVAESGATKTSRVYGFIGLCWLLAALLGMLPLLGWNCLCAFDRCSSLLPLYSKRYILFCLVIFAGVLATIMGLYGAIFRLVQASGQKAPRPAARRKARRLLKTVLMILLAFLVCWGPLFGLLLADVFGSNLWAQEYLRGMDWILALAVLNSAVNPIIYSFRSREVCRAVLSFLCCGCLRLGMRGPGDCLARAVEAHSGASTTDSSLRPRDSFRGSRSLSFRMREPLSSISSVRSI
The test is described as follows: Agonism of human S1P-4 receptor expressed in CHO cells, 90-120 min in pH 7.4 using [35S]GTP-gamma-S as radioligand. For orientation: GTPγS is a poorly hydrolysed GTP analogue; its binding reports G protein activation.

The target of test [2] is Sphingosine 1-phosphate receptor 2 (Homo sapiens, UniProt O95136). Kind of test: Agonism of human S1P-2 receptor expressed in CHO cells, 90-120 min in pH 7.4 using [35S]GTP-gamma-S as radioligand.
Chain of Sphingosine 1-phosphate receptor 2 (O95136 whole entry): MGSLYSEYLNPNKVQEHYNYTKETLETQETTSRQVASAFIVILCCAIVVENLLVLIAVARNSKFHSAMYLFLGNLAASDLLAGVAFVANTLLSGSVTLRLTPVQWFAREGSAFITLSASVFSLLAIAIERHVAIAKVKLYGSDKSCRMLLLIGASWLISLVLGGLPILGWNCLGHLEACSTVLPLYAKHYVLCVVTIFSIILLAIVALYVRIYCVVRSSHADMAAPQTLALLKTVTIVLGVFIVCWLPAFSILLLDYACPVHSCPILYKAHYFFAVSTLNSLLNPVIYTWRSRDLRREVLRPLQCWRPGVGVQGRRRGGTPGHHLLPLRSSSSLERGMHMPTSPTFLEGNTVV
Test [3] deals with Sphingosine 1-phosphate receptor 3 (Homo sapiens, UniProt Q99500). Kind of test: Agonism of human S1P-3 receptor expressed in CHO cells, 90-120 min in pH 7.4 using [35S]GTP-gamma-S as radioligand.
Chain of Sphingosine 1-phosphate receptor 3 (Q99500 whole entry): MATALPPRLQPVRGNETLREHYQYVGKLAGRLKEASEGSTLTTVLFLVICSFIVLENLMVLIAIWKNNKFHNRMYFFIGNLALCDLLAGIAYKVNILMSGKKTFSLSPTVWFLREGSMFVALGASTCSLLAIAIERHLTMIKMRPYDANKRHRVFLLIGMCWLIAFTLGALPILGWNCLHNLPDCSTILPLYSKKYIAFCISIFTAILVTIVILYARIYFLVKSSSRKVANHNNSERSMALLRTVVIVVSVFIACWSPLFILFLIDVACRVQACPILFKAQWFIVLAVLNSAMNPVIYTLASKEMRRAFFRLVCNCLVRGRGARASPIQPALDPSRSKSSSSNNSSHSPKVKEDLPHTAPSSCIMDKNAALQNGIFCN
Test [4] concerns the target Sphingosine 1-phosphate receptor 5 (Homo sapiens, UniProt Q9H228). Kind of test: Agonism of human S1P-5 receptor expressed in CHO cells, 90-120 min in pH 7.4 using [35S]GTP-gamma-S as radioligand.

Chain of Sphingosine 1-phosphate receptor 5 (Q9H228 whole entry): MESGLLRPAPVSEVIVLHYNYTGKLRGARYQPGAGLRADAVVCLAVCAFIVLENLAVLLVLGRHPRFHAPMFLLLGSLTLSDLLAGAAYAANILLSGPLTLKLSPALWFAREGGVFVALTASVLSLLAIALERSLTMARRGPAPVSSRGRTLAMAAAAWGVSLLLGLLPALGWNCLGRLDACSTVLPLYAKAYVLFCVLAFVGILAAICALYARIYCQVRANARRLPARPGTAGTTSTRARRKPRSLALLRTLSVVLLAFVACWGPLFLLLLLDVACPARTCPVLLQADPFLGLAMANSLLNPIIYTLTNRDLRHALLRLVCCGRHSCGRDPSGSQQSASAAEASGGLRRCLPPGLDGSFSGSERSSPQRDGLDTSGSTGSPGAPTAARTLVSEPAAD

What is called EC50 is the concentration at which the effect is half-maximal. High values mean lower potency in that assay, low ones higher potency in that assay. Regarding `CCCCCCCCc1ccc(CC[C@@](N)(CO)COP(=O)(O)O)cc1`, the EC50 in test [1] came to 80.1 nM. Same read-out and setting: as for `CCCCCCCCc1ccc(CCC(N)(CO)COP(=O)(O)O)cc1` (racemic), the figure is 2.4 nM. Consider `CCCCCCCCc1ccc(CCC(N)(CO)CO)cc1` [FINGOLIMOD], for which the EC50 in test [2], in test [3], in test [1] and in test [4] was more than 10000 nM in each case.

The compound `CCCCCCCCc1ccc(CC[C@](N)(CO)COP(=O)(O)O)cc1` [FTY720-P] gave an EC50 in test [1] of 0.6 nM.
